“Also recorded” adds a separate entry of the source.
How the values were obtained:
[1] = system: subjects with allergic conjunctivitis to grass, tree or ragweed pollen (CAPT); experiment: Phase IIa Conjunctival Allergen Provocation Test (CAPT) study, activity endpoints; format: in vivo, human; details: for efficacy in treating allergic conjunctivitis, result in words: clinical trial, topical ocular, four times daily about two weeks
Text: The primary objective of the study is to evaluate the safety and activity of NS2, i.e., compound of structural formula (I), compared to vehicle in the treatment of moderate to severe allergic conjunctivitis in subjects allergic to grass, ragweed or tree allergens following approximately 2 weeks of treatment using the Conjunctival Allergen Provocation Test (CAPT) model.
This double-blind, vehicle-controlled, randomized, parallel group study allows for testing NS2 versus vehicle in subjects with grass, tree or ragweed-induced allergic conjunctivitis in CAPT model. This study consists of 7 or 8 visits to the clinic (a medical screening visit, a titrating CAPT visit, 1 or 2 confirmatory CAPT visits, a CAPT Onset of Action Visit, and three post-2 week dosing CAPT visits) over approximately 9 weeks.
At Visit 4, site staff will update concomitant medications and collect AEs as applicable. Ophthalmic evaluations are conducted (VA, SLE, subject rating of ocular symptoms, and staff grading of conjunctival redness and lid swelling). Subjects must have ocular itching scores of 0 in each eye and conjunctival redness scores of ≤1 in each eye in each region (nasal and temporal) of each eye in order to participate. […] 30 min prior to the CAPT procedure, clinic staff instills one drop of the randomized treatment into each eye. CAPT is then performed using the concentration titration than what reached the positive response at Visit 3 or 3B. Once the CAPT allergen is instilled, subject assessed symptoms and staff assessed signs are collected at 2.5 (+1 min—itching only), 5, 10, 15 min (+2 min), 30, 60, 90, 120, 150, 180 (+5 min). At the end of the visit, subjects are instructed and dispensed their randomized treatment for 2 weeks of at-home qid dosing and their diary card for recording their dosing, AEs, and concomitant medications. Subjects are scheduled to return for Visit 5 in 2 weeks.
(§1) At Visit 5, site staff will update concomitant medications and collect AEs as applicable. Ophthalmic evaluations are conducted (VA, SLE, subject rating of ocular symptoms, and staff grading of conjunctival redness and lid swelling). Approximately 10 μL of basal tears is collected from both eyes for cytokine analysis prior to drug instillation and CAPT. 30 min prior to the CAPT procedure, clinic staff instills one drop of the randomized treatment into each eye. CAPT is then performed using the concentration titration than what reached the positive response at Visit 3 or 3B. Once the CAPT allergen is instilled, subject assessed symptoms and staff assessed signs are collected at 2.5 (+1 min—itching only), 5, 10, 15 min (+2 min), 30, 60, 90, 120, 150, 180 min (+5 min). Following CAPT instillation, tear collection is begun at the 35 min (+15 min) mark, and approximately 10 μL of basal tears is collected from both eyes.
as §1, with “Visit 6,” for “Visit 5,”, “swelling).” for “swelling). Approximately 10 μL of basal tears is collected from both eyes for cytokine analysis prior to drug instillation and CAPT.”, “min).” for “min). Following CAPT instillation, tear collection is begun at the 35 min (+15 min) mark, and approximately 10 μL of basal tears is collected from both eyes.”
At Visit 7, site staff will update concomitant medications and collect AEs as applicable. Ophthalmic evaluations are conducted (VA, SLE, subject rating of ocular symptoms, and staff grading of conjunctival redness and lid swelling). 30 min prior to the CAPT procedure, clinic staff instills one drop of the randomized treatment into each eye. CAPT is then performed using the concentration titration than what reached the positive response at Visit 3 or 3B. […]

[2] = system: subjects with allergic conjunctivitis; experiment: Phase IIa CAPT study, safety and tolerability; format: in vivo, human
Text: Clinical Study Endpoints—Safety Endpoints: (1) number and severity of local and systemic reactions, and other adverse reactions; (2) vital signs; (3) slit lamp examination; (4) visual acuity; (5) non-contact tonometry; and (6) fundus examination.
Study Products and Randomization. For study purposes, NS2 0.5% and NS2 0.0% are both referred to as study drug. NS2 is formulated in eye drops for topical ocular use. The drug product is supplied as single dose unpreserved eye drops at an NS2 concentration of 0.5% (w/v). The formulation is 9.5% sulfobutylether-β-cyclodextrin (SBE-β-CD) in sterile water for injection buffered with sodium phosphate, dibasic and monobasic, and pH adjusted to 7.3.
Dose Administration. NS2 ophthalmic drops (0.5%) or NS2 ophthalmic drops (0.0%) Vehicle are provided as single use blow fill vials. One drop is instilled into each eye four times daily for approximately […].
Adverse Events. An adverse event (AE) is defined as any untoward medical occurrence associated with the use of a drug in humans, whether or not considered drug related. Disease signs, symptoms, and/or laboratory abnormalities already existing prior to the use of the product are not considered AEs after treatment unless they reoccur after the subject has recovered from the pre-existing condition or, in the opinion of the investigator, they represent a clinically significant exacerbation in intensity or frequency. AEs are collected from the time the subject signs the informed consent form until the completion of study. AEs reported prior to dosing are captured and considered non treatment emergent AEs.
Safety Analysis. Safety is evaluated via the following parameters: (a) AEs; (b) Vital signs; (c) Slit lamp examination; (d) Visual acuity; (e) Non-contact tonometry; and (f) Fundus examination.
Cyclodextrin Response in CAPT Model. Cyclodextrin was utilized as vehicle in a Randomized, Parallel, Single-Center, Double-Masked, Vehicle-Controlled Phase II Study to Evaluate the Activity of Study Drug NS2 (i.e., structural formula (I)) Ophthalmic Solution in Subjects with Allergic Conjunctivitis using the Conjunctival Allergen Provocation Test (CAPT). There were initial screening and titrating CAPT visits, followed by confirmatory CAPT visits where the allergen dose which reproducibly causes an ocular allergic reaction was selected. This allergen dose was utilized for the active dosing study phase. A CAPT Onset of Action Visit after a single dose of study drug to each eye on dosing Day 1, Visit 4 (V4), and three post-2 week dosing CAPT visits on active dosing days 14, 15 and 16, V5-7. NS2 and vehicle were dosed 4× daily for 16 days. 100 healthy men and women with at least a 2 year history of allergic conjunctivitis to grass, tree or ragweed pollen were enrolled, randomized 1:1, 50 on NS2 and 50 on vehicle containing cyclodextrin.
The allergic conjunctivitis Phase IIa trial was a randomized, parallel group, double-masked, vehicle-controlled design evaluating the activity of NS2 ophthalmic solution in subjects with allergic conjunctivitis. The trial utilized the Conjunctival Allergen Provocation Test, known as the CAPT, and was conducted at a single center, Inflamax Research in Ontario, Canada, which has considerable experience with the CAPT model.

[3] = CAPT, Day 1 single dose and multiple days dosing, NS2 0.5% vs vehicle (9.5% SBE-β-CD)
[4] = 16 days of dosing four times per day, 50 subjects

| Compound | duration of clinical efficacy following each CAPT challenge ([1]; 3 hours studied after each CAPT challenge) | ocular itching score, result in words [1, 3] | ocular tearing score, result in words [1, 3] | lid swelling, frequency and pattern, result in words ([1]; CAPT, NS2 vs vehicle) | efficacy in treating allergic conjunctivitis, result in words [1] | patients of the drug group who withdrew from the study (stinging) [2, 4] | patients of the drug group who withdrew from the study (stinging), percent [2, 4] | stinging/burning adverse events reported as moderate ([2]; NS2 group) | frequency of stinging and or burning ([2]; NS2 group vs vehicle) | tolerability, result in words ([2]; topical ocular 0.5%, 4x daily, 16 days) | serious adverse events ([2]; whole study) |
| --- | --- | --- | --- | --- | --- | --- | --- | --- | --- | --- | --- |
| CC(C)(O)c1nc2ccc(Cl)cc2cc1N [NS2] | ≥ 3 h | statistically significant differences; also recorded: greater effect; also recorded: exceeding one point reductions | statistically significant differences; also recorded: greater effect; also recorded: exceeding one point reductions | appeared similar | greater effect | 2 patients | 4% | less than 10% | increased frequency | generally well tolerated | no serious adverse events |
| sulfobutylether-β-cyclodextrin | – | – | – | – | high response rates and significant efficacy | – | – | – | – | – | – |

From patent US10426790B2, “Treatment of allergic eye conditions with cyclodextrins” (Aldeyra Therapeutics, Inc., priority 2016, dated 2019)
